Source: PMC5290327, “SC83288 is a clinical development candidate for the treatment of severe malaria” (Nature Communications, 2017)
Values after ≈ are worked out from the molar mass of the structure shown. Blank lines part the entries; values can stand above or below the molecule they belong to.

Tests used:
P. falciparum strain Dd2 = assay: Growth inhibition assay, asexual blood stages; format: cell-based, Plasmodium falciparum; details: Plasmodium falciparum
Permeability assay = format: in vitro ADME; details: human; CACO 2 cells, 10 μM, apical side, 2 h
Method: The study was conducted by Cyprotex (Macclesfield, United Kingdom). CACO 2 cells (Sigma-Aldrich, catalogue: 86010202) were seeded on Millipore Millicell plates and formed a confluent monolayer over 20 days before the experiment. On day 20, the tested compounds at a final concentration of 10 μM were added to the apical side of the membrane. The transport of the compound across the monolayer was monitored over a 2 h period by liquid chromatography (LC)–MS/MS quantification. The permeability coefficient (Papp) was calculated from the following equation: [drawing 1] , where dQ/dt is the rate of permeation of the drug across the cells, C0 the donor compartment concentration at time zero and A the area of the cell monolayer. C0 was obtained from analysis of the dosing solution at the start of the experiment.

Plasmodium vinckei = assay: Rodent malaria model; format: in vivo; details: P. vinckei, 30 mg kg-1 i.p. 1x4 days
Excerpt: The two SC compounds were also active in the Plasmodium vinckei rodent malaria model system.

Plasmodium berghei = assay: Rodent malaria model; format: in vivo; details: for Outcome: P. berghei
Method: This was the case for both an in vivo 4 day dosing regimen of 30 mg kg^−1 per day and an ex vivo one-cycle growth inhibition assay. […] Differential therapeutic efficacy in various rodent model systems is a well-established phenomenon and is typically associated with charged compounds, such as positively charged amidines and negatively charged phosphoric acid or carboxylic acid containing drugs. The phenomenon is explained based on selective uptake of charged compounds through parasite-induced channels, termed new permeation pathways, in the host cell plasma membrane and species-specific characteristics of the new permeation pathways.

P. chabaudi = assay: Rodent malaria model; format: in vivo; details: 10 mg kg-1 i.v. 1x4 days
PK study = format: in vivo, rat; details: rat, plasma, po; rats
Method: On the treatment day, all animals were weighed and the dosing volume was calculated for each individual animal according to its actual body weight. All animal were dosed once. Blood samples were taken at different time points and plasma was collected after centrifugation (10,000g, 10 min, 4 °C). Plasma samples were analysed by LC–MS/MS. […] All relevant observations were recorded. The PK studies in cynomolgus monkeys and beagle dogs were performed by the Laboratory of Pharmacology and Toxicology (LPT), Hamburg, and PK and toxicity studies in mice and rats were performed by the 4SC Discovery GmbH, Munich. PK parameters were obtained by a non-compartment analysis, using Kinetica 4.1 (Thermo Scientific).

HepG2 cells = assay: Cytotoxicity; details: 10 μM
Solubility in water = details: water
[1] = In vitro metabolism in liver microsomes; details: human microsome assay
5-HT2B (h) = biological target: T1, 5-HT2B (h) (Homo sapiens, UniProt P41595); assay: Radioligand binding; details: control compound
T1 construct: Cerep (contract screening)
T1 sequence (P41595 whole entry): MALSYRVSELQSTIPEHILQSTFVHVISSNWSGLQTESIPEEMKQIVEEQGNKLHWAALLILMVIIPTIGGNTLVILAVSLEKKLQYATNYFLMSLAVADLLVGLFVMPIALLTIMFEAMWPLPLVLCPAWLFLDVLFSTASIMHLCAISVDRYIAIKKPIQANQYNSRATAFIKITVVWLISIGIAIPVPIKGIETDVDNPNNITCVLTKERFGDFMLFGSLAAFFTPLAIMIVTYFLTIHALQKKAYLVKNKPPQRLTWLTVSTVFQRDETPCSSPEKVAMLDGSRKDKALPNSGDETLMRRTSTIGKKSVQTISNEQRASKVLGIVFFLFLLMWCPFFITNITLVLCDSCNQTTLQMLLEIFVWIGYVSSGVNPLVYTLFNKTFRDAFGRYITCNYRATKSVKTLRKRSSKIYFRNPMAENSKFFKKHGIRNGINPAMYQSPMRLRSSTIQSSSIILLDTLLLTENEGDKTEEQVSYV
Method: (§1) The study was carried out by Cerep (Celle l'Evescault, France). An in vitro pharmacological profiling panel was designed to detect potential high-risk clinical adverse drug reactions. The panel comprised of 54 targets.
(§2) The specific ligand binding to the receptors was defined as the difference between the total binding and the non-specific binding determined in the presence of an excess of unlabelled ligand. Results were expressed as a per cent of control specific binding and as a per cent inhibition of control specific obtained in the presence of the test compounds. Results showing an inhibition (or stimulation) >50% were considered to represent significant effects of the test compounds. […] The IC50 values were determined by non-linear regression analysis of the competition curves generated with mean replicate values using Hill equation curve fitting. The inhibition constants (Ki) were calculated using the Cheng Prusoff equation.

a2 (non-selective) = assay: Radioligand binding; details: control compound
Method: as §1, §2

CCR1 (h) = biological target: T2, CCR1 (h) (Homo sapiens, UniProt P32246); assay: Radioligand binding; details: control compound
T2 construct: Cerep
T2 sequence (P32246 1-355): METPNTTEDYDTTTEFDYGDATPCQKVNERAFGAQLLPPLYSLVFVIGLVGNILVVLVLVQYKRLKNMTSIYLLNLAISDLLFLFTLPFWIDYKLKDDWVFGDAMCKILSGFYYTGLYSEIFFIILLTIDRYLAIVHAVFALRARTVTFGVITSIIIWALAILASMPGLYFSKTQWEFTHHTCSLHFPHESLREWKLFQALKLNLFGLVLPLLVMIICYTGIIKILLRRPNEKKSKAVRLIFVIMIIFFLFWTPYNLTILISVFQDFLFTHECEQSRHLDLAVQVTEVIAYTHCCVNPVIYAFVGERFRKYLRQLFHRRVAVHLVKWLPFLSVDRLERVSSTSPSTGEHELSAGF

[2] = biological target: Ca2+ channel (L, verapamil site); assay: Radioligand binding; details: control compound
Method: as §1, §2

sst (non-selective) = assay: Radioligand binding; details: control compound
Method: as §1, §2

[3] = system: cytoplasmic free Ca2+ in P. falciparum HB3 trophozoites; assay: Ca2+ live imaging, Fluo-4; details: SC compounds 10 and 20 μM; CPA 10 μM
TP (h) (TXA2/PGH2) = biological target: T3, TP (h) (TXA2/PGH2) (Homo sapiens, UniProt P21731); assay: Radioligand binding; details: control compound
T3 construct: Cerep
T3 sequence (P21731 1-343): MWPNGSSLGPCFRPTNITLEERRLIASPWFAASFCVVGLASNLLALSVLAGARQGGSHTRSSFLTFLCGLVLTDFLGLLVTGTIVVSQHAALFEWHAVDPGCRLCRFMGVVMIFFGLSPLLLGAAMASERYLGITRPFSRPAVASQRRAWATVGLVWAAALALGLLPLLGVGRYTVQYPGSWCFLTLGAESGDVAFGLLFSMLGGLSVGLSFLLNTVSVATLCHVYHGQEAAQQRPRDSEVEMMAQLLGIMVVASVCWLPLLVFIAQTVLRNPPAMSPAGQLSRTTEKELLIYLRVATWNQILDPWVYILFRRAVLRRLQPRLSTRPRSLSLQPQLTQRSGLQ

CXCR2 (IL-8B) (h) = biological target: T4, CXCR2 (IL-8B) (h) (Homo sapiens, UniProt P25025); assay: Radioligand binding; details: control compound
T4 construct: Cerep
T4 sequence (P25025 1-360): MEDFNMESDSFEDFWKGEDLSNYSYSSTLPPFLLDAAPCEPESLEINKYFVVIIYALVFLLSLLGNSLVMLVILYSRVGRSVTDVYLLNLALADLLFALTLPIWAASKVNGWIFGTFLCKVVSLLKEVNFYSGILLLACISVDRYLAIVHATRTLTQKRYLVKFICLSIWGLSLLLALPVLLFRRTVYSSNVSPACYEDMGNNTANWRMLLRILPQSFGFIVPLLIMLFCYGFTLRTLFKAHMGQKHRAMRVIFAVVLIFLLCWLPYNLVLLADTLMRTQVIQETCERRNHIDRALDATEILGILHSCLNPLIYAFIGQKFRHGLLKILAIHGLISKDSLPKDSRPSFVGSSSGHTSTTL

Na+ channel (site 2) = assay: Radioligand binding; details: control compound
[4] = system: Dd2 P. falciparum parasites; assay: In vitro parasite reduction ratio assay (Sanz protocol); format: cell-based, Plasmodium falciparum
Dd2 SC81458 resistant = assay: Growth inhibition assay; format: cell-based; details: Plasmodium falciparum
Method: (§3) To identify the mode of action/mechanism of resistance of SC81458 and […], a chemogenomic approach was used, whereby resistant parasites were obtained by in vitro drug pressure selection and subjected to whole-genome sequencing to identify the genetic basis of resistance. Three independent selections of Dd2 parasites at an initial population of 10^10 infected red blood cells (performed in 150 ml flasks, 2% haematocrit) were subjected to SC81458 or SC83288 at a starting concentration of 50 nM. […] Drug resistance was confirmed by measuring the IC50s, after two consecutive cycles in absence of the drug, using a SYBRGreen growth inhibition assay as previously described. After up to 200 days of drug pressure, the drug-resistant lines were clones by limiting dilution for single-cell isolation and genomic DNA was extracted using the DNeasy Blood&Tissue kit (Qiagen, USA) and subjected to ultra-deep sequencing.

Dd2 SC83288 resistant = assay: Growth inhibition assay; format: cell-based; details: Plasmodium falciparum
Method: as §3

a1 (non-selective) = assay: Radioligand binding; details: control compound
Method: as §1, §2

[5] = read-out: Control specific binding IC50
[6] = read-out: Control specific binding Ki

Molecule: N=C(N)c1cccc(NC(=O)Nc2ccc(S(=O)(=O)NCc3ccc(S(N)(=O)=O)cc3)cc2)c1 [SC09064]
IC50 (P. falciparum strain Dd2; DD2, 72 h, Dd2, standard proliferation assay, 72 h exposure): 10 ± 3 nM | Papp at 2 h, 10 μM (Permeability assay): 0.28 ×10⁻⁶ cm/s | Outcome (Plasmodium vinckei): inactive | Outcome (Plasmodium berghei; 10 mg kg-1 i.v. 1x4 days): inactive | Outcome (Plasmodium berghei; 50 mg kg-1 i.p. 1x4 days): inactive | activity against P. berghei (Plasmodium berghei; in vivo): no activity | Outcome (P. chabaudi): inactive | bioavailability (PK study): 3% | Ames test (Ames test): negative | adverse effects on HepG2 cells (HepG2 cells): no adverse effects | solubility (Solubility in water): 316 µg/mL (≈ 629 µM) | metabolic stability, residual after 1 h of incubation [1]: 65%

Molecule: COc1cc(CC(C)N)c(OC)cc1I (racemic) [(±)DOI, reference compound]
IC50 (5-HT2B (h); [5]): 5.1 nM | Ki (5-HT2B (h); [6]): 4.6 nM

Molecule: COC(=O)[C@@H]1[C@H]2C[C@H]3c4[nH]c5ccccc5c4CCN3C[C@@H]2CC[C@@H]1O [yohimbine, reference compound]
IC50 (a2 (non-selective); [5]): 69 nM | Ki (a2 (non-selective); [6]): 30 nM

IC50 (CCR1 (h); [5]): 0.06 nM | Ki (CCR1 (h); [6]): 0.03 nM
Molecule: MIP-1a: control compound of the binding panel [reference compound]

Molecule: COc1ccc(CCN(C)CCCC(C#N)(c2cc(OC)c(OC)c(OC)c2)C(C)C)cc1OC (stereo not shown) [D 600, reference compound]
IC50 [2, 5]: 67 nM | Ki [2, 6]: 34 nM

Molecule: somatostatin-14: control compound of the binding panel [reference compound]
IC50 (sst (non-selective); [5]): 0.15 nM | Ki (sst (non-selective); [6]): 0.092 nM

Molecule: CC(=O)C1=C(O)[C@@H]2[C@H]3c4c[nH]c5cccc(c45)C[C@H]3C(C)(C)N2C1=O [CPA, cyclopiazonic acid, reference compound]
effect on cytoplasmic free Ca^2+ [3]: induced a strong Ca^2+ responses

IC50 (TP (h) (TXA2/PGH2); [5]): 14 nM | Ki (TP (h) (TXA2/PGH2); [6]): 6.2 nM
Molecule: CCCCC[C@H](O)/C=C/[C@H]1[C@@H]2CO[C@@H](C2)[C@@H]1C/C=C\CCCC(=O)O [U 44069, reference compound]

IC50 (CXCR2 (IL-8B) (h); [5]): 0.063 nM | Ki (CXCR2 (IL-8B) (h); [6]): 0.029 nM
Molecule: IL-8: control compound of the binding panel [reference compound]

Molecule: COc1ccc(C(=O)O[C@H]2CC[C@@]3(C)[C@@H]4CC[C@H]5[C@]6(O)C[C@H](O)[C@@]7(O)[C@@H](CN8C[C@@H](C)CC[C@H]8[C@@]7(C)O)[C@]6(O)C[C@@]53O[C@]24O)cc1OC [veratridine, reference compound]
IC50 (Na+ channel (site 2); [5]): 10 µM | Ki (Na+ channel (site 2); [6]): 9 µM

Molecule: O=C1C(O)=C([C@H]2CC[C@H](c3ccc(Cl)cc3)CC2)C(=O)c2ccccc21 [atovaquone, reference compound]
IC50 (P. falciparum strain Dd2; DD2, Dd2, Supplementary Table 11): 0.6 ± 0.1 nM | In vitro PCT99.9% ([4]; 10 times IC50, Dd2): 89 ± 7 h | In vitro lag phase ([4]; 10 times IC50, Dd2): > 24 h | In vitro logPRR ([4]; 10 times IC50, Dd2, over 48 h): 2.1±0.4 | IC50 (Dd2 SC81458 resistant): 0.3 ± 0.1 nM | IC50 (Dd2 SC83288 resistant): 0.8 ± 0.1 nM

Molecule: COc1cc2nc(N3CCN(C(=O)c4ccco4)CC3)nc(N)c2cc1OC [prazosin, reference compound]
IC50 (a1 (non-selective); [5]): 0.82 nM | Ki (a1 (non-selective); [6]): 0.22 nM
